Source: patent US20230321253A1, “BIFUNCTIONAL COMPOUNDS AND PHARMACEUTICAL USES THEREOF” (RISEN (SUZHOU) PHARMA TECH CO., LTD., priority 2022, published 2023)

Each compound was assayed against T1, KRAS-G12D protein (Homo sapiens, UniProt P01116, G12D) (assay: KRAS-G12D protein degradation study in Aspc-1 cells (western blot)). Settings: ASPC1, 24 h, Aspc-1 cells treated with 0.1 μM compound, 24 hours; read-out: Rate of protein degradation (KRAS^G12D).
T1 construct: host or cells: Aspc-1 cells
Type: cell-based
Experimental: Aspc-1 (Cobioer, CBP60546) cells in exponential growth phase were inoculated on a 6-well cell culture plate (Corning, 3516) at density of 1E6/well; and cells in the plate were cultured in 37° C. incubator containing 5% carbon dioxide. The next day, test compounds were dissolved in DMSO (Sigma, RNBF5902) for the preparation of a 10 mM concentration stock solution. The stock solution was diluted with complete medium (RPMI-1640 supplemented with 10% fetal bovine serum, 1% penicillin-streptomycin), yielding working solutions of various concentrations. The plate, after the addition of compounds, was placed in a 5% carbon dioxide incubator, and incubated at 37° C. for 24 hours (final DMSO concentration was 0.1%). The plate was then removed from the incubator, and the cells were washed twice with precooled PBS (Gibco, 14190250), followed by addition of 80 μL RIPA lysis buffer (containing protease inhibitor (Invitrogen™, AM2696)) to each well. The adherent cells were scraped off with a cell scraper, and the cell lysate was transferred to a 1.5 mL centrifuge tube followed with a 30-minute incubation on ice. The lysate was then clarified with centrifugation at 14000 rpm for 10 min at 4° C. The supernatant was transferred into a new 1.5 mL centrifuge tube, and protein concentration was measured with BCA protein detection kit (Thermo Fisher, 23225). KRAS-G12D protein level was assessed by western blot.
A mixture of cell lysate (40 μL) and loading buffer (10 μL 5×SDS (Beyotime, P0015L)) was denatured in a water bath at 95° C. for 10 min. The denatured protein sample, at 30 μL/well, was loaded into the corresponding well of a 4-20% Bis-Tris gel (Kingsley, M00656). Protein samples were initially electrophoresed at 80 V for 30 minutes, followed by 120 V for 40 minutes, until the bromophenol blue strip ran to an appropriate position. After electrophoresis, iBlot2 (Life Technologies, IB21001) was used to transfer the separated samples onto PVDF film. The PVDF membrane was washed with double-distilled water and then blocked in TBST (Thermo Scientific, 28360) buffer containing 5% non-fat milk, for 2 hours. Blocked membrane was rinsed with tris-buffered saline tween-20 (Thermo Scientific, 28360, TBST) three times, 10 minutes each. Membrane was then incubated with 1:1000 diluted KRAS primary antibody (CST, cat #14429S) overnight at 4° C. Membrane was rinsed as described previously followed by 1 hour incubation of secondary antibody at room temperature. After washing the film three times with TBST, ECL color developing solution was applied, and image was captured with Biorad Chemi Doc gel imager. The band gray value was quantified (Image Lab), and protein degradation level was calculated according to the following formula:
Level of RAS protein expression=(RAS-compound/GAPDH)/(RAS-DMSO/GAPDH)
Level of degradation (%)=(1−Rate of RAS protein expression)×100
The symbols “−”, “+”, “++”, and “+++” indicate that the degradation level of KRAS^G12D protein induced by the test compounds was 10% or less, 11 to 30%, 31 to 60%, and greater than 60%, respectively.
Half-maximum degradation concentrations (DC50s) of exemplary test compounds were calculated using GraphPad Prism and their values are shown in Table 6. The symbols “++++”, “+++”, “++” and “+” indicate DC50 equal or less than 10 nM, 11-50 nM, 51-100 nM, and 101-200 nM, respectively.

T1 sequence (P01116 1-188 isoform P01116-2 G12D): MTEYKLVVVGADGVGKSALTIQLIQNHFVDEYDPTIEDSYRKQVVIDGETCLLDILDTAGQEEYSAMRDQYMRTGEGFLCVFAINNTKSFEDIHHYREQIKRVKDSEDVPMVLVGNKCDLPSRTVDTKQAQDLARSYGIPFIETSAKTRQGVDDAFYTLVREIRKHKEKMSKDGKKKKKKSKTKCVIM

Structure (SMILES)	inhibition at 0.1 µM [%]
C#Cc1c(F)ccc2cc(O)cc(-c3ncc4c(N5CC6CCC(C5)N6)nc(OC5CCN(CCCCCCCCCCCCOc6cc(-c7ncsc7C)ccc6CNC(=O)[C@@H]6C[C@@H](O)CN6C(=O)[C@@H](NC(=O)C6(F)CC6)C(C)(C)C)CC5)nc4c3F)c12 [Compound 78]	≤ 10
CCc1c(F)ccc2cc(O)cc(-c3ncc4c(N5CC6CCC(C5)N6)nc(OC5CCN(CCCCCCCCCCC(=O)N[C@H](C(=O)N6C[C@H](O)C[C@H]6C(=O)N[C@@H](C)c6ccc(-c7scnc7C)cc6)C(C)(C)C)CC5)nc4c3F)c12 [Compound 80]	31 to 60
CCc1c(F)ccc2cc(O)cc(-c3ncc4c(N5CC6CCC(C5)N6)nc(OCC5(CN6CCC7(CC6)CC(N6CCC(c8ccc9c(C%10CCC(=O)NC%10=O)nn(C)c9c8)CC6)C7)CC5)nc4c3F)c12 (stereo not shown) [Compound 81]	31 to 60
C#Cc1c(F)ccc2cc(O)cc(-c3ncc4c(N5CC6CCC(C5)N6)nc(O[C@H]5CCN(CCCCCCCCCC(=O)N[C@H](C(=O)N6C[C@H](O)C[C@H]6C(=O)N[C@@H](C)c6ccc(-c7scnc7C)cc6)C(C)(C)C)C5)nc4c3F)c12 [Compound 83]	11 to 30
C#Cc1c(F)ccc2cc(O)cc(-c3ncc4c(N5CC6CCC(C5)N6)nc(O[C@H]5CCN(CCCCCCCCCCCC(=O)N[C@H](C(=O)N6C[C@H](O)C[C@H]6C(=O)N[C@@H](C)c6ccc(-c7scnc7C)cc6)C(C)(C)C)C5)nc4c3F)c12 [Compound 84]	31 to 60
C#Cc1c(F)ccc2cc(O)cc(-c3ncc4c(N5CC6CCC(C5)N6)nc(O[C@H]5CCN(CCCCCCCCCCC(=O)N[C@H](C(=O)N6C[C@H](O)C[C@H]6C(=O)N[C@@H](C)c6ccc(-c7scnc7C)cc6)C(C)(C)C)C5)nc4c3F)c12 [Compound 85]	> 60
C#Cc1c(F)ccc2cc(O)cc(-c3ncc4c(N5CC6CCC(C5)N6)nc(O[C@@H]5CCN(CCCCCCCCCCC(=O)N[C@H](C(=O)N6C[C@H](O)C[C@H]6C(=O)N[C@@H](C)c6ccc(-c7scnc7C)cc6)C(C)(C)C)C5)nc4c3F)c12 [Compound 86]	31 to 60
C#Cc1c(F)ccc2cc(O)cc(-c3ncc4c(N5CC6CCC(C5)N6)nc(O[C@@H]5CCN(CCCCCCCCCCCC(=O)N[C@H](C(=O)N6C[C@H](O)C[C@H]6C(=O)N[C@@H](C)c6ccc(-c7scnc7C)cc6)C(C)(C)C)C5)nc4c3F)c12 [Compound 87]	31 to 60
C#Cc1c(F)ccc2cc(O)cc(-c3ncc4c(N5CC6CCC(C5)N6)nc(O[C@@H]5CCN(CCCCCCCCCC(=O)N[C@H](C(=O)N6C[C@H](O)C[C@H]6C(=O)N[C@@H](C)c6ccc(-c7scnc7C)cc6)C(C)(C)C)C5)nc4c3F)c12 [Compound 88]	≤ 10
C#Cc1c(F)ccc2cc(O)cc(-c3ncc4c(N5CC6CCC(C5)N6)nc(OCC5C[C@@H](NC(=O)CCCCCCCCCCC(=O)N6CCC(c7ccc8c(C9CCC(=O)NC9=O)nn(C)c8c7)CC6)CN5C)nc4c3F)c12 (stereo partly shown) [Compound 89]	≤ 10
C#Cc1c(F)ccc2cc(O)cc(-c3ncc4c(N5CC6CCC(C5)N6)nc(OC[C@@H]5C[C@@H](NC(=O)CCCCCCCCCCC(=O)N[C@H](C(=O)N6C[C@H](O)C[C@H]6C(=O)N[C@@H](C)c6ccc(-c7scnc7C)cc6)C(C)(C)C)CN5C)nc4c3F)c12 [Compound 90]	≤ 10
C#Cc1c(F)ccc2cc(O)cc(-c3ncc4c(N5CC6CCC(C5)N6)nc(OCC56CCCN5[C@@H](COC(=O)NCCCCCCCCCCC(=O)N[C@H](C(=O)N5C[C@H](O)C[C@H]5C(=O)N[C@@H](C)c5ccc(-c7scnc7C)cc5)C(C)(C)C)CC6)nc4c3F)c12 (stereo partly shown) [Compound 93]	> 60
C#Cc1c(F)ccc2cc(O)cc(-c3ncc4c(N5CC6CCC(C5)N6)nc(OCC5CCN(CC(=O)N6CCC(c7ccc8c(C9CCC(=O)NC9=O)nn(C)c8c7)CC6)C5)nc4c3F)c12 (stereo not shown) [Compound 94]	31 to 60
C#Cc1c(F)ccc2cc(O)cc(-c3ncc4c(N5CC6CCC(C5)N6)nc(OC[C@@H]5C[C@@H](NC(=O)N6CCC(c7ccc8c(C9CCC(=O)NC9=O)nn(C)c8c7)CC6)CN5C)nc4c3F)c12 (stereo partly shown) [Compound 95]	11 to 30
C#Cc1c(F)ccc2cc(O)cc(-c3ncc4c(N5CC6CCC(C5)N6)nc(OCC56CCCN5[C@@H](COC(=O)N5CCC(c7ccc8c(C9CCC(=O)NC9=O)nn(C)c8c7)CC5)CC6)nc4c3F)c12 (stereo partly shown) [Compound 97]	31 to 60
C#Cc1c(F)ccc2cc(O)cc(-c3ncc4c(N5CC6CCC(C5)N6)nc(OCC56CCCN5[C@@H](COC(=O)NCCCCCCCCCC(=O)N[C@H](C(=O)N5C[C@H](O)C[C@H]5C(=O)N[C@@H](C)c5ccc(-c7scnc7C)cc5)C(C)(C)C)CC6)nc4c3F)c12 (stereo partly shown) [Compound 98]	31 to 60
C#Cc1c(F)ccc2cc(O)cc(-c3ncc4c(N5CC6CCC(C5)N6)nc(OC5CCN(CCCCCCCCCCC(=O)N6CCN(C(=O)C[C@H](NC(=O)[C@@H]7C[C@@H](O)CN7C(=O)[C@@H](NC(=O)C7(F)CC7)C(C)(C)C)c7ccc(-c8scnc8C)cc7)CC6)CC5)nc4c3F)c12 [Compound 103]	≤ 10
C#Cc1c(F)ccc2cc(O)cc(-c3ncc4c(N5CC6CCC(C5)N6)nc(OCC5(CN6CCN(CCCCCCCCCCC(=O)N7CCN(C(=O)C[C@H](NC(=O)[C@@H]8C[C@@H](O)CN8C(=O)[C@@H](NC(=O)C8(F)CC8)C(C)(C)C)c8ccc(-c9scnc9C)cc8)CC7)CC6)CC5)nc4c3F)c12 [Compound 106]	11 to 30
C#Cc1c(F)ccc2cc(O)cc(-c3ncc4c(N5CC6CCC(C5)N6)nc(OCC5(CN6CCC(C(=O)N7CCN(c8ccc(NC9CCC(=O)NC9=O)cc8F)CC7)CC6)CC5)nc4c3F)c12 (stereo not shown) [Compound 107]	11 to 30
C#Cc1c(F)ccc2cc(O)cc(-c3ncc4c(N5CC6CCC(C5)N6)nc(OCC5(CN6CCN(C(=O)CN7CCN(c8ccc(NC9CCC(=O)NC9=O)cc8F)CC7)CC6)CC5)nc4c3F)c12 (stereo not shown) [Compound 108]	≤ 10
C#Cc1c(F)ccc2cc(O)cc(-c3ncc4c(N5CC6CCC(C5)N6)nc(OCC5(CN6CCN(CC7CCN(c8ccc(NC9CCC(=O)NC9=O)cc8F)CC7)CC6)CC5)nc4c3F)c12 (stereo not shown) [Compound 109]	31 to 60
C#Cc1c(F)ccc2cc(O)cc(-c3ncc4c(N5CC6CCC(C5)N6)nc(OCC5(CN6CCC7(CC6)CCN(c6ccc(NC8CCC(=O)NC8=O)cc6F)CC7)CC5)nc4c3F)c12 (stereo not shown) [Compound 110]	31 to 60
C#Cc1c(F)ccc2cc(O)cc(-c3ncc4c(N5CC6CCC(C5)N6)nc(OCC5(CN6CCC(N7CCC(c8ccc9c(C%10CCC(=O)NC%10=O)nn(C)c9c8)CC7)CC6)CC5)nc4c3F)c12 (stereo not shown) [Compound 113]	> 60

Same assay, conditions: Aspc-1 cells treated with 0.1 μM compound, 24 hours

Structure (SMILES)	Rate of protein degradation (KRAS^G12D)
C#Cc1c(F)ccc2cc(O)cc(-c3ncc4c(N5CC6CCC(C5)N6)nc(OC[C@@H]5C[C@@H](NC(=O)CCCCCCC(=O)N[C@H](C(=O)N6C[C@H](O)C[C@H]6C(=O)N[C@@H](C)c6ccc(-c7scnc7C)cc6)C(C)(C)C)CN5C)nc4c3F)c12 [Compound 91]	− (10% or less)
C#Cc1c(F)ccc2cc(O)cc(-c3ncc4c(N5CC6CCC(C5)N6)nc(OCC5(CN6CCC(c7ccc8c(C9CCC(=O)NC9=O)nn(C)c8c7)CC6)CC5)nc4c3F)c12 (stereo not shown) [Compound 99]	+++ (greater than 60%)
C#Cc1c(F)ccc2cc(O)cc(-c3ncc4c(N5CC6CCC(C5)N6)nc(OC5CCN(CC(=O)N6CCC7(CC6)CC(N6CCC(c8ccc9c(C%10CCC(=O)NC%10=O)nn(C)c9c8)CC6)C7)C5)nc4c3F)c12 (stereo not shown) [Compound 101]	+ (11 to 30%)

Same assay, conditions: Aspc-1 cells; read-out: DC50 of test compound-induced KRAS^G12D protein degradation

Structure (SMILES)	DC50 [µM]
C#Cc1c(F)ccc2cc(O)cc(-c3ncc4c(N5CC6CCC(C5)N6)nc(O[C@H]5CCN(CCCCCCCCCC(=O)N[C@H](C(=O)N6C[C@H](O)C[C@H]6C(=O)N[C@@H](C)c6ccc(-c7scnc7C)cc6)C(C)(C)C)C5)nc4c3F)c12 [Compound 83]	0.101 to 0.2
C#Cc1c(F)ccc2cc(O)cc(-c3ncc4c(N5CC6CCC(C5)N6)nc(OCC56CCCN5[C@@H](COC(=O)NCCCCCCCCCCC(=O)N[C@H](C(=O)N5C[C@H](O)C[C@H]5C(=O)N[C@@H](C)c5ccc(-c7scnc7C)cc5)C(C)(C)C)CC6)nc4c3F)c12 (stereo partly shown) [Compound 93]	0.051 to 0.1
C#Cc1c(F)ccc2cc(O)cc(-c3ncc4c(N5CC6CCC(C5)N6)nc(OCC5(CN6CCC(c7ccc8c(C9CCC(=O)NC9=O)nn(C)c8c7)CC6)CC5)nc4c3F)c12 (stereo not shown) [Compound 99]	0.011 to 0.05
C#Cc1c(F)ccc2cc(O)cc(-c3ncc4c(N5CC6CCC(C5)N6)nc(OCC5(CN6CCC7(CC6)CCN(c6ccc(NC8CCC(=O)NC8=O)cc6F)CC7)CC5)nc4c3F)c12 (stereo not shown) [Compound 110]	< 0.01
C#Cc1c(F)ccc2cc(O)cc(-c3ncc4c(N5CC6CCC(C5)N6)nc(OCC5(CN6CCC(N7CCC(c8ccc9c(C%10CCC(=O)NC%10=O)nn(C)c9c8)CC7)CC6)CC5)nc4c3F)c12 (stereo not shown) [Compound 113]	< 0.01
